As a reminder, the IC50 is the concentration that inhibits the measured activity by half. A low value points to higher potency. In general, Kd refers to the constant that tells how readily two partners part at equilibrium. Read a high Kd as weaker binding.

Holding throughout (conditions): pH 7.35
In experiment [1] the target is Bifunctional protein GlmU (Escherichia coli (strain K12), UniProt P0ACC7). Briefly: Inhibition Assay. The text has this: (§1) Inhibition assay using GlmU bifuncation enzyme with various bacterial strains.
Experiment [2] addresses Bifunctional protein GlmU (Haemophilus influenzae (strain ATCC 51907 / DSM 11121 / KW20 / Rd), UniProt P43889). Nature of the experiment: Inhibition Assay.
Text: as §1

Experiment [3] has as its target Bifunctional protein GlmU (Staphylococcus aureus (strain COL), UniProt Q5HIH6). Nature of the experiment: Inhibition Assay.
Text: as §1

Experiment [4] concerns the target Bifunctional protein GlmU (Streptococcus pneumoniae (strain ATCC BAA-255 / R6), UniProt Q8DQ18). Briefly: Inhibition Assay.
Text: as §1

For experiment [5], the target named is Bifunctional protein GlmU (Escherichia coli) (UniProt P0ACC7). Nature of the experiment: Inhibition assay using GlmU bifuncation enzyme with various bacterial strains.

Some results are limits rather than exact numbers.

Chain of Bifunctional protein GlmU (Streptococcus pneumoniae (strain ATCC BAA-255 / R6), UniProt Q8DQ18) (Q8DQ18 whole entry): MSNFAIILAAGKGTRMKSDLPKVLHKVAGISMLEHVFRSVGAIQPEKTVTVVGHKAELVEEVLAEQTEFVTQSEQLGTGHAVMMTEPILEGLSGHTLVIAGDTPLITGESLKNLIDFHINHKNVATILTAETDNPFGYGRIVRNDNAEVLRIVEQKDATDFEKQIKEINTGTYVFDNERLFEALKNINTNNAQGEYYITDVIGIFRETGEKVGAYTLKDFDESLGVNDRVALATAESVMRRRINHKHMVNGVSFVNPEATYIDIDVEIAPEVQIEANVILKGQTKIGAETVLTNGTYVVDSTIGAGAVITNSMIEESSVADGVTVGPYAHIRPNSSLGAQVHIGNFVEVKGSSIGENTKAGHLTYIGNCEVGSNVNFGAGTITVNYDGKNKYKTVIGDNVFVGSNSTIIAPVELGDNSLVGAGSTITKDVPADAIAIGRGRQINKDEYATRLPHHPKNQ
Chain of Bifunctional protein GlmU (Haemophilus influenzae (strain ATCC 51907 / DSM 11121 / KW20 / Rd), UniProt P43889) (P43889 whole entry): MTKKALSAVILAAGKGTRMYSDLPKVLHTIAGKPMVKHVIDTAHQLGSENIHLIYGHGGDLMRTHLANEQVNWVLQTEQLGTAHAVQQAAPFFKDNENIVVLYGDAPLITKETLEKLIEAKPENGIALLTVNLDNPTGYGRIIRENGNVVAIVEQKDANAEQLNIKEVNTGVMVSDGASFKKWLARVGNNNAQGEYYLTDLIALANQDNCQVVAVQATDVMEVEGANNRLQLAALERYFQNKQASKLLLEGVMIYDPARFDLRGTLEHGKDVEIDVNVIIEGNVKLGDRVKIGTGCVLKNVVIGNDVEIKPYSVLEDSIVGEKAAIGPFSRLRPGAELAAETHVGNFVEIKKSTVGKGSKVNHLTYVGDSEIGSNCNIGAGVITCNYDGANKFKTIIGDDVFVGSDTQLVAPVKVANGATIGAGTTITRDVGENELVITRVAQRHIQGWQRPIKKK
Chain of Bifunctional protein GlmU (Escherichia coli (strain K12), UniProt P0ACC7) (P0ACC7 whole entry): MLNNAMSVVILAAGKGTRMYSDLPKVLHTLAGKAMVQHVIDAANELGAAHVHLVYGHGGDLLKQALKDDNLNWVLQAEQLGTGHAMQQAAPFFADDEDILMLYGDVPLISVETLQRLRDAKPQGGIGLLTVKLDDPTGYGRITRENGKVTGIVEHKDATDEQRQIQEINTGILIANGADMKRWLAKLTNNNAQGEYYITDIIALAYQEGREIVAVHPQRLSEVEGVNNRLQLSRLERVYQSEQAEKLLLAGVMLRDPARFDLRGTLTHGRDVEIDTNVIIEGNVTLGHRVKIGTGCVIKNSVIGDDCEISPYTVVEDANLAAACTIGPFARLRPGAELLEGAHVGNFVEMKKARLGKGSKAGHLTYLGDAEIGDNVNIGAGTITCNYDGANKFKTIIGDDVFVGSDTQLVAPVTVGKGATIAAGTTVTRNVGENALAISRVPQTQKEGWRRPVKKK
Chain of Bifunctional protein GlmU (Staphylococcus aureus (strain COL), UniProt Q5HIH6) (Q5HIH6 whole entry): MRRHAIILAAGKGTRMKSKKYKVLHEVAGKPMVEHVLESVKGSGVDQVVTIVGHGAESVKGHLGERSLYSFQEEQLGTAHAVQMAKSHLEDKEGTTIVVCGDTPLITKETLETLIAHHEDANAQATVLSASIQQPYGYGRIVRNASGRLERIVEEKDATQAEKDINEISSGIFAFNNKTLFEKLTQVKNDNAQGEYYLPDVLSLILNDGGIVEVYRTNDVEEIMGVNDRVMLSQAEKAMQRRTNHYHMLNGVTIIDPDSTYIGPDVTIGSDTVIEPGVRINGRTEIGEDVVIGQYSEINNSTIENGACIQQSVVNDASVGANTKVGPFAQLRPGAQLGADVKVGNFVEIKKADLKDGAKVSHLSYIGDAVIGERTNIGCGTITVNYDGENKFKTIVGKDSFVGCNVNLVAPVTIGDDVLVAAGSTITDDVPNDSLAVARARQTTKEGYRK
Chain of Bifunctional protein GlmU (Escherichia coli) (P0ACC7 whole entry, looked up): as the sequence (P0ACC7 whole entry) above

Take `COc1cc(OC)c(S(=O)(=O)N2c3ccccc3CC2C)cc1NC(C)=O` (stereo not drawn): the IC50 in experiment [1] was 2.1 µM; in experiment [2], 7.8 µM; in experiment [3], more than 200 µM; in experiment [4] it was more than 200 µM.
For `COc1cc(OC)c(S(=O)(=O)N(C)c2ccccc2)cc1NC(C)=O`, in experiment [5], the Kd came to 1.9 µM. The IC50 in experiment [2] is 6.4 µM; in experiment [4] it was more than 200 µM.
On to `COc1cc(OC)c(S(=O)(=O)N(c2ccccc2)c2ccc(N)cc2)cc1NC(=O)CCC(=O)O` [Sulfonamide, 3], for which the IC50 in experiment [2] was 0.4 µM; in experiment [3] it was more than 200 µM; in experiment [4] it was 40 µM.
As for `COc1cc(O)c(S(=O)(=O)N2c3ccccc3CCC2C)cc1NC(=O)CCC(=O)O` (stereo not drawn) [Sulfonamide, 4], the IC50 in experiment [1] is 0.058 µM; in experiment [2], 0.28 µM; in experiment [3], more than 200 µM; in experiment [4] it was 4.7 µM.
For `COc1cc(OC)c(S(=O)(=O)N2c3ccccc3Oc3ccccc32)cc1NC(=O)CCC(=O)O` [Sulfonamide, 5] the same measures were 0.007 µM, 0.023 µM, more than 200 µM and 15 µM.
